Assay results published in patent US9650616B2, “Methods for increasing grain yield” (University of Florida Research Foundation, Inc., priority 2014, dated 2017).
Where a chain is given by its changes, count along the chain named. Values joined by “and” are separate entries in the source; they are usually repeats but may differ in a detail not shown here. Equal entries are not always repeated. Where two headings read alike, the source gives them in different places.

What was measured:
[1] = molecular target: T1, maize endosperm AGPase variant T142F (Zea mays, UniProt P55241+Q84PF5, T142F); assay: Apparent kinetic constants with 3-PGA, 37° C., T142F; format: biochemical
T1 construct: data of Boehlein et al., 2013
T1 sequence (P55241 46-516 T142F): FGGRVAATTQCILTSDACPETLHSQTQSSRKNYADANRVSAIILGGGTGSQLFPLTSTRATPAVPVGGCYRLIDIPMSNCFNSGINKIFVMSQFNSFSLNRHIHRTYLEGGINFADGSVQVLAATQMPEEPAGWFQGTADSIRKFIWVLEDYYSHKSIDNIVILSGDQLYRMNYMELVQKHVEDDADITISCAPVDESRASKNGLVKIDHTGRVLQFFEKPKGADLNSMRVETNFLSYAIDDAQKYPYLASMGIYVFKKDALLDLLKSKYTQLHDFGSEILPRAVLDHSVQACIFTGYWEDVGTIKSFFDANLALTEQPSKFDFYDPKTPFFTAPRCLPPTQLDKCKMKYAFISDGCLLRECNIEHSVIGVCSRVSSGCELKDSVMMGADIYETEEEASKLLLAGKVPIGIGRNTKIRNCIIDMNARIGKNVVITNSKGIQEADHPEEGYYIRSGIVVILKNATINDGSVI
T1 sequence (Q84PF5 1-474): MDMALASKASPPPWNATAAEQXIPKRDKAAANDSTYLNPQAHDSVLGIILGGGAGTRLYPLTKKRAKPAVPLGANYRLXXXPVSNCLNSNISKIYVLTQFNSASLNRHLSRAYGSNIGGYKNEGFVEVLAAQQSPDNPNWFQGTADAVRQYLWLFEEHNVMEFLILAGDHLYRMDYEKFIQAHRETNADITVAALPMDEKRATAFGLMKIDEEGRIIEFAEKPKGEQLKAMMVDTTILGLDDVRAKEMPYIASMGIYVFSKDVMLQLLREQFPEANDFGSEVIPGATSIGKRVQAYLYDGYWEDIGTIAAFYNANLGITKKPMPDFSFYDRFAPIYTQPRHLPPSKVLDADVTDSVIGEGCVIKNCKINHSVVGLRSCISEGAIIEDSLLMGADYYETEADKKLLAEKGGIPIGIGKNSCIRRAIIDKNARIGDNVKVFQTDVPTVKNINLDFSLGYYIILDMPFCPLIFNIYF
Experimental: (§1) An endpoint assay was used to determine the rate of the AGPase reaction by coupling the formation of PPi to a decrease in NADH concentration (Boehlein et al., 2008). […] The Michaelis constants (Km) were obtained by varying one substrate in the presence of saturating concentrations of the second substrate. The activation constants were obtained by varying the activator at fixed levels of both substrates. All reactions were performed at 37° C. and mixes were prewarmed before starting the reaction with enzyme. […] The absorbance at 340 nm was monitored after 30 min and the amount of PPi produced was determined from a standard curve using PPi in complete reaction mixtures lacking AGPase. Blank samples contained complete reaction mixtures without enzyme and the change in absorbance between the blank and the reaction was used to calculate the amount of PPi produced. […]
(§2) The apparent Michaelis constant and maximum velocity of each reaction was calculated from a V vs. S plots using nonlinear regression analysis and the following equation, v=VmaxS/(Km+S), where v is the measured velocity, Vmax is the maximum velocity, S is the substrate concentration. […]
(§3) Each mutant, comprising 1, 2, 3 or 4 changes, was grown in a large scale culture, expressed and purified according to standard procedures (Boehlein et al., 2005). […] Next, the activation constant, Ka, was determined for each of the mutant enzymes. […]

[2] = system: maize endosperm AGPase, heat stable ISM mutants; assay: Apparent kinetic constants with 3-PGA, 37° C., ISM mutants collectively; format: biochemical, Zea mays
Experimental: An endpoint assay was used to determine the rate of the AGPase reaction by coupling the formation of PPi to a decrease in NADH concentration (Boehlein et al., 2008). […] The Michaelis constants (Km) were obtained by varying one substrate in the presence of saturating concentrations of the second substrate. The activation constants were obtained by varying the activator at fixed levels of both substrates. All reactions were performed at 37° C. and mixes were prewarmed before starting the reaction with enzyme. Reactions were terminated by boiling the reaction mixes for 2 minutes followed by development with 200 μl of coupling reagent (25 mM imidazole pH 7.4, 4 mM MgCl2, 1 mM EDTA, 0.2 mM NADH, 0.725 U aldolase, 0.4 U triose phosphate isomerase, 0.6 U glycerophosphate dehydrogenase, 1 mM fructose 6-phosphate and 0.8 μg purified PPi-PFK per reaction). The absorbance at 340 nm was monitored after 30 min and the amount of PPi produced was determined from a standard curve using PPi in complete reaction mixtures lacking AGPase. Blank samples contained complete reaction mixtures without enzyme and the change in absorbance between the blank and the reaction was used to calculate the amount of PPi produced. Reactions were linear with time and enzyme concentration.
The apparent Michaelis constant and maximum velocity of each reaction was calculated from a V vs. S plots using nonlinear regression analysis and the following equation, v=VmaxS/(Km+S), where v is the measured velocity, Vmax is the maximum velocity, S is the substrate concentration. The activation constant (Ka) was obtained using the following equation: V=Vmin+Vmax*(X)/(Ka+X), where Vmin is the velocity in the absence of activator and Vmax is the change in activity from Vmin to the total velocity. X is the activator concentration, Ka is the activation constant. All linear regression was carried out using the software program Prism (Graph Pad, San Diego Calif.).
Each mutant, comprising 1, 2, 3 or 4 changes, was grown in a large scale culture, expressed and purified according to standard procedures (Boehlein et al., 2005). […] Thus, the effects of these mutations on the kinetic constants are minimal. Next, the activation constant, Ka, was determined for each of the mutant enzymes. Here a decrease in the Ka for each of the mutants of approximately 3-6 fold was observed. This property appears to stem from the D161G change, and includes all enzymes which carry this mutation (Table 8). To be certain the effect is the result of the D161G mutation, and not the result of other single mutant changes, Q96R and Q96G were purified and characterized.

[3] = molecular target: T2, maize endosperm AGPase, evolutionary mutant SH2-E (Zea mays, UniProt P55241+Q84PF5); assay: Apparent kinetic constants with 3-PGA, 37° C., SH2-E; format: biochemical; conditions: read-out: G-1-P Km
T2 construct: data of Boehlein et al., 2013
T2 sequence (P55241 46-516, change not shown, one chain of several): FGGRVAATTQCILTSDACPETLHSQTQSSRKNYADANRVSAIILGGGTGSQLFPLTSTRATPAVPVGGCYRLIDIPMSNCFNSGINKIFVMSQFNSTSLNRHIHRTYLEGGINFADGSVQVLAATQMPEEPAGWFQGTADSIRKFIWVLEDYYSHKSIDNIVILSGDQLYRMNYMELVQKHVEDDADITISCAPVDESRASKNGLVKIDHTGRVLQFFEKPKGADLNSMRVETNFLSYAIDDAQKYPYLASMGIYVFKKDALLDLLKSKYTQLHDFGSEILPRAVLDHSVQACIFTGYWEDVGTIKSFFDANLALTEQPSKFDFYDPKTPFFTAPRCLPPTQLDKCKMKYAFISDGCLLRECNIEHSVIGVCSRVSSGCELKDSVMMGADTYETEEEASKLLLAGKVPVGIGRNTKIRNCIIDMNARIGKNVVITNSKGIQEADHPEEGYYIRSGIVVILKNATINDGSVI
Experimental: as §1, §2, §3

[4] = system: maize endosperm AGPase, wild type (Maize-wt); conditions: read-out: G-1-P Km, absence of 3-PGA; cited from earlier work
[5] = system: maize endosperm AGPase, wild type; conditions: cited from earlier work
[6] = system: maize endosperm AGPase, wild type; conditions: cited from earlier work; remark: listed apart in the source
[7] = molecular target: T1, maize endosperm AGPase variant T142F; conditions: read-out: G-1-P Km, absence of 3-PGA; cited from earlier work
[8] = molecular target: T2, maize endosperm AGPase, evolutionary mutant SH2-E; conditions: read-out: G-1-P Km, absence of 3-PGA; cited from earlier work
[9] = system: maize endosperm AGPase, evolutionary mutant SH2-E (SH2E); conditions: cited from earlier work; for Ki: read-out: Ki (Pi)
[10] = system: maize endosperm AGPase, evolutionary mutant SH2-E (SH2E); conditions: cited from earlier work; for Ki: presence of 3-PGA, NC, read-out: Ki (Pi)
[11] = molecular target: T3, maize endosperm AGPase, large subunit variant GGR (Q96G, D161G, A443R; numbering of SEQ ID NO: 20) (Zea mays, UniProt P55241+Q84PF5, A443R/D161G/Q96G); assay: Pi inhibition in the absence of 3-PGA, GGR; format: biochemical
T3 sequence (P55241 46-516 A443R/D161G/Q96G): T1 sequence (P55241 46-516 T142F) with Q51G, F97T, D116G, A398R
T3 sequence (Q84PF5 1-474): T1 sequence (Q84PF5 1-474)
Experimental: Next, the kinetics of the GGR mutant were further investigated by following Pi inhibition in the presence and absence of 3-PGA. Experiments were performed by keeping both substrates constant and non-saturating at several fixed concentrations of Pi.
A similar examination of the Pi inhibition was then followed with GGR in the absence of 3-PGA.

[12] = molecular target: T3, maize endosperm AGPase, large subunit variant GGR (Q96G, D161G, A443R; numbering of SEQ ID NO: 20); assay: Pi inhibition in the presence of 3-PGA, GGR; format: biochemical
Source text: Inhibition by Pi was then followed in the presence of the activator 3-PGA.

[13] = Maize wt, absence of 3-PGA, varied substrate ATP
[14] = Maize wt, absence of 3-PGA, varied substrate G-1-P
[15] = Maize wt, presence of 3-PGA, varied substrate ATP
[16] = Maize wt, presence of 3-PGA, varied substrate G-1-P
[17] = absence of 3-PGA, varied substrate G-1-P

With `O=C(O)[C@H](O)COP(=O)(O)O` [3-PGA] the “Ka for 3-PGA” value [1] was “decreased Ka”, the “affinity for the activator, 3-PGA” value ([2]; heat stable mutant) was “increased affinity” and the “decrease in the Ka for 3-PGA” value ([2]; mutants carrying D161G versus wt maize) was 3-6 fold.
In the case of `O=P(O)(O)O[C@H]1O[C@H](CO)[C@@H](O)[C@H](O)[C@H]1O` [G-1-P, glucose-1-phosphate], the Km [3] is listed as 30 µM, the “largest variation in Km” value ([2]; mutants versus wt maize, in the presence of 3-PGA) is listed as “approximately two-fold” and the Km [4] is listed as 2800 µM. The Km ([5]; read-out: Km (G-1-P), Maize wt, absence of 3-PGA, G-1-P varied, Pi inhibition, P-MT) was 22200 µM, the Km ([5]; wt maize AGPase, absence of activator, Pi inhibition assay, read-out: Km for both substrates) was greater than 20000 µM and the Km ([6]; read-out: Km (G-1-P), Maize wt, presence of 3-PGA, G-1-P varied, Pi inhibition, P-MT) was 91 µM. For the same compound, the Km [7] was 90 µM, the Km [8] was 30 µM and the Km ([9]; read-out: Km (G-1-P), absence of 3-PGA, G-1-P varied, Pi inhibition) was 200 µM. The Km ([10]; read-out: Km (G-1-P), presence of 3-PGA, G-1-P varied, Pi inhibition, NC) was 63 µM.
For `O=P(O)(O)O` [Pi, phosphate], the “Ki for Pi relative to normal concentration of Pi in maize endosperm (~6.5 mM)” value [11] was 10-20 times, the Ki ([11]; read-out: Ki for Pi with respect to both substrates) was 50 to 100 mM and the Ki ([11]; varied substrate G-1-P, read-out: Ki (Pi)) was 52.7 mM. For the same compound, the Ki ([12]; in the presence of 3-PGA, read-out: Ki for Pi) was 10 to 20 mM, the “α (Pi interaction factor)” value ([12]; presence of 3-PGA, varied substrate ATP) was 2.5 and 2.5 +/− 0.66 and the Ki ([12]; presence of 3-PGA, varied substrate ATP, L-MT, read-out: Ki (Pi)) was 10.7 mM. For the same compound, the Ki ([12]; presence of 3-PGA, varied substrate G-1-P, NC, read-out: Ki (Pi)) was 20.7 mM, the Ki ([5]; Maize wt, absence of 3-PGA, varied substrate ATP, P-MT, read-out: Ki (Pi)) was 3.4 mM and the “α (Pi interaction factor)” value [5, 13] was 0.063 +/− 0.034. For the same compound, the “β (partiality of Pi inhibition)” value [5, 13] was 0.52 +/− 0.17, the Ki ([5]; Maize wt, absence of 3-PGA, varied substrate G-1-P, P-MT, read-out: Ki (Pi)) was 5.1 mM and the “α (Pi interaction factor)” value [5, 14] was 0.095 +/− 0.065. For the same compound, the “β (partiality of Pi inhibition)” value [5, 14] was 0.92 +/− 0.31, the Ki ([5]; wt maize AGPase, absence of activator, read-out: Ki for Pi) was 3 to 5 mM and the Ki ([6]; Maize wt, presence of 3-PGA, varied substrate ATP, P-MT, read-out: Ki (Pi)) was 0.37 mM. The “α (Pi interaction factor)” value [6, 15] was 4.61 +/− 0.70, the “β (partiality of Pi inhibition)” value [6, 15] was 0.83 +/− 0.037 and the Ki ([6]; Maize wt, presence of 3-PGA, varied substrate G-1-P, P-MT, read-out: Ki (Pi)) was 1 mM. For the same compound, the “α (Pi interaction factor)” value [6, 16] was 0.90 +/− 0.012, the “β (partiality of Pi inhibition)” value [6, 16] was 0.52 +/− 0.023 and the Ki ([6]; wt AGPase, in the presence of 3-PGA, read-out: Ki for Pi) was 0.5 to 1 mM. For the same compound, the Ki ([9]; absence of 3-PGA, varied substrate ATP, NC) was 20.9 mM, the Ki [9, 17] was 0.055 mM and the “α (Pi interaction factor)” value [9, 17] was 0.85 +/− 0.17. For the same compound, the “β (partiality of Pi inhibition)” value [9, 17] was 0.44 +/− 0.03, the Ki ([10]; varied substrate ATP) was 7.8 mM and the Ki ([10]; varied substrate G-1-P) was 6.62 mM.
